What was measured:
MDA-MB-231 = experiment: Cytotoxicity against Homo sapiens (human) MDA-MB-231 cells assessed as inhibition of cell proliferation after 72 hr by MTT assay; format: functional, cell-based; details: MDA-MB-231, 72 h
T47D = experiment: Cytotoxicity against Homo sapiens (human) T47D cells assessed as inhibition of cell proliferation after 72 hr by MTT assay; format: functional, cell-based
MCF7 = experiment: Cytotoxicity against Homo sapiens (human) MCF7 cells assessed as inhibition of cell proliferation after 72 hr by MTT assay; format: functional, cell-based; details: MCF7, 72 h
MCF7 (Homo sapiens) = experiment: Cytotoxicity against Homo sapiens (human) MCF7 cells assessed as inhibition of cell proliferation after 72 hr by MTT assay; details: MCF7, 72 h

Row | SMILES | IC50 (MDA-MB-231) [µM] | IC50 (T47D) [µM] | IC50 (MCF7) [µM] | IC50 (MCF7 (Homo sapiens)) [µM]
1 | CN(C)CCOc1ccc(-c2nc(-c3ccccc3)[nH]c2-c2ccccc2)cc1 | 53 | 50 |  | 
2 | CC/C(=C(\c1ccccc1)c1ccc(OCCN(C)C)cc1)c1ccccc1 [TAMOXIFEN] | 25.1 | 12.1 | 55.5 | 
3 | c1ccc(-c2nc(-c3ccc(OCCN4CCCCC4)cc3)c(-c3ccccc3)[nH]2)cc1 | < 0.1 | < 0.1 | < 0.1 | 
4 | Oc1ccc(-c2nc(-c3ccc(OCCN4CCCCC4)cc3)c(-c3ccccc3)[nH]2)cc1 | < 0.1 | < 0.1 | < 0.1 | 
5 | Fc1ccc(-c2nc(-c3ccc(OCCN4CCCCC4)cc3)c(-c3ccccc3)[nH]2)cc1 | 78 | 61 | > 100 | 
6 | COc1ccc(-c2nc(-c3ccc(OCCN(C)C)cc3)c(-c3ccccc3)[nH]2)cc1 | 42 | 28 |  | 
7 | CN(C)CCOc1ccc(-c2nc(-c3ccc(O)cc3)[nH]c2-c2ccccc2)cc1 | 70 | 63 | 82 | 
8 | CN(C)CCOc1ccc(-c2nc(-c3ccc(F)cc3)[nH]c2-c2ccccc2)cc1 |  | 61 |  | 82
9 | COc1ccc(-c2nc(-c3ccc(OCCN4CCCCC4)cc3)c(-c3ccccc3)[nH]2)cc1 | 65 | 54 | 71 | 

From ChEMBL document CHEMBL3046729, “Design, synthesis, and cytotoxic activities of new 2,4,5-triarylimidazoles” (Med Chem Res, 2013)
